Measured values: patent US20260223850A1, “SUBSTITUTED PYRROLIDONE COMPOUND, PREPARATION METHOD THEREFOR, COMPOSITION AND APPLICATION THEREOF” (QINGDAO KINGAGROOT CHEMICAL COMPOUND CO., LTD., priority 2023, published 2026)

Key:
Type in all cases: in vivo
Echinochloa crusgalli = assay: Seedling stage sealing experiment for water-seeding; details: 120 g a.i./ha, 15 days, fresh weight control rate
Excerpt: (§1) The activity level criteria for plant damage (i.e., growth control rate) are as follows: • Level 9: completely dead; • Level 8: growth control rate greater than or equal to 90% and less than 100%; • Level 7: growth control rate greater than or equal to 80% and less than 90%; • Level 6: growth control rate greater than or equal to 70% and less than 80%; • Level 5: growth control rate greater than or equal to 50% and less than 70%; • Level 4: growth control rate greater than or equal to 30% and less than 50%; • Level 3: growth control rate greater than or equal to 20% and less than 30%; • Level 2: growth control rate greater than or equal to 10% and less than 20%; • Level 1: growth control rate less than 10%; • Level 0: no effect.
(§2) The above growth control rates are fresh weight control rates.
(§3) Echinochloa phyllopogon, Digitaria sanguinalis, Huaidao (rice cultivar), etc. were broadcasted on the surface of nutrition bowls filled with soil and fully covered by soil. The foregoing well-prepared nutrition bowls were then placed in a cultivation box with water filled to a suitable height to keep the soil in the nutrition bowls moist. A test compound of the present invention was individually dissolved with acetone, then diluted into solution of a certain concentration using a certain amount of water, and sprayed using a spray tower. The plants were placed on a greenhouse seedbed and cultured for 15 days, and the experimental results were then collected. The compound was applied at 120, 60, 30 and 15 g a.i./ha in triplicate, and the results were averaged.

Echinochloa phyllopogon = assay: as above; details: 120 g a.i./ha, 15 days, fresh weight control rate
Excerpt: as §1, §2, §3

Huaidao (rice cultivar) = assay: Seedling stage sealing experiment for water-seeding (crop safety); details: 120 g a.i./ha, 15 days, fresh weight control rate; for Huaidao (rice cultivar) plant damage level (growth control rate): spray, seedling stage sealing for water-seeding; for Huaidao (rice cultivar) plant damage level: seedling stage sealing
Excerpt: as §1, §2, §3

[1] = spray, seedling stage sealing for water-seeding

Structure (SMILES)	Echinochloa crusgalli activity level (growth control rate) (Echinochloa crusgalli; [1])	Echinochloa phyllopogon activity level (growth control rate) (Echinochloa phyllopogon; [1])	Huaidao (rice cultivar) plant damage level (growth control rate) (Huaidao (rice cultivar))	Echinochloa crusgalli activity level (growth control rate) (Echinochloa crusgalli; seedling stage sealing)	Echinochloa phyllopogon activity level (growth control rate) (Echinochloa phyllopogon; seedling stage sealing)	Huaidao (rice cultivar) plant damage level (Huaidao (rice cultivar))
Cc1cc([C@H]2CN(C)C(=O)[C@@H]2C(=O)Nc2cnn(C)c2C2CC2)cc(C)c1C [448′]	9	9	0			
CN1C[C@H](c2cc(Br)cc(C(F)F)c2)[C@@H](C(=O)Nc2cnn(C(F)F)c2Cl)C1=O [512′]	9	7 (Level 7: growth control rate greater than or equal to 80% and less than 90%)	0			
CCc1cc(CC)cc([C@H]2CN(C)C(=O)[C@@H]2C(=O)Nc2cnn(C)c2Cl)c1 [439′]				9	9	2 (Level 2: growth control rate greater than or equal to 10% and less than 20%)
COc1cc(OC)cc([C@H]2CN(C)C(=O)[C@@H]2C(=O)Nc2cnn(C)c2Cl)c1 [302′]				9	6 (Level 6: growth control rate greater than or equal to 70% and less than 80%)	0
COCCn1ncc(NC(=O)[C@H]2C(=O)N(C)C[C@@H]2c2cccc(C)c2)c1Cl [386′]				9	6 (Level 6: growth control rate greater than or equal to 70% and less than 80%)	0
C=Cc1c(NC(=O)[C@H]2C(=O)N(C)C[C@@H]2c2cc(C)cc(C)c2)cnn1C(F)F [496′]	9	9	0			
CN1C[C@H](c2cc(Cl)cc(Cl)c2)[C@@H](C(=O)Nc2cnn(C)c2Cl)C1=O [519′]	9	9	1 (Level 1: growth control rate less than 10%)			
CCn1ncc(NC(=O)[C@H]2C(=O)N(C)C[C@@H]2c2cc(C)cc(C)c2)c1C1CC1 [432′]				9	9	0
Cc1cccc([C@H]2CN(C)C(=O)[C@@H]2C(=O)Nc2cn(C)nc2I)c1 [399′]				9	9	0
COc1cccc([C@H]2CN(C)C(=O)[C@@H]2C(=O)Nc2cnn(C(F)F)c2Cl)c1 [215′]				9	8 (Level 8: growth control rate greater than or equal to 90% and less than 100%)	0
COc1cccc([C@H]2CN(C)C(=O)[C@@H]2C(=O)Nc2cnn(C)c2C(F)(F)F)c1 [485′]	9	9	0			
COCn1ncc(NC(=O)[C@H]2C(=O)N(C)C[C@@H]2c2cc(C)cc(C)c2)c1Cl [422′]				9	9	1 (Level 1: growth control rate less than 10%)
Cc1cc(C)cc([C@H]2CN(C)C(=O)[C@@H]2C(=O)Nc2cnn(CC(F)(F)F)c2Cl)c1 [268′]				7 (Level 7: growth control rate greater than or equal to 80% and less than 90%)	6 (Level 6: growth control rate greater than or equal to 70% and less than 80%)	0
C=C(C)c1c(NC(=O)[C@H]2C(=O)N(C)C[C@@H]2c2cccc(C(F)(F)F)c2)cnn1C [407′]				9	9	0
C=Cc1c(NC(=O)[C@H]2C(=O)N(C)C[C@@H]2c2cccc(C)c2)cnn1C [137′]				6 (Level 6: growth control rate greater than or equal to 70% and less than 80%)	5 (Level 5: growth control rate greater than or equal to 50% and less than 70%)	0
CO/N=C/c1c(NC(=O)[C@H]2C(=O)N(C)C[C@@H]2c2cc(C)cc(C)c2)cnn1C [501′]	9	7 (Level 7: growth control rate greater than or equal to 80% and less than 90%)	0			

Structure (SMILES)	Echinochloa crusgalli activity level (growth control rate) (Echinochloa crusgalli; [1])	Echinochloa phyllopogon activity level (growth control rate) (Echinochloa phyllopogon; [1])	Huaidao (rice cultivar) plant damage level (growth control rate) (Huaidao (rice cultivar))	Echinochloa crusgalli activity level (growth control rate) (Echinochloa crusgalli; seedling stage sealing)	Echinochloa phyllopogon activity level (growth control rate) (Echinochloa phyllopogon; seedling stage sealing)	Huaidao (rice cultivar) plant damage level (Huaidao (rice cultivar))
CN1C[C@H](c2cccc(C(F)(F)F)c2)[C@@H](C(=O)Nc2cnn(C)c2)C1=O [156′]				9	7 (Level 7: growth control rate greater than or equal to 80% and less than 90%)	0
Cc1cc(Cl)cc([C@H]2CN(C)C(=O)[C@@H]2C(=O)Nc2cnn(C)c2C2CC2)c1 [506′]	9	9	0			
Cc1cc([C@H]2CN(C)C(=O)[C@@H]2C(=O)Nc2cnn(C)c2Br)cc(C)c1C [516′]	9	9	0			
CN1C[C@H](c2cccc(C(F)(F)F)c2)[C@@H](C(=O)Nc2cnn(C)c2F)C1=O [119′]				9	9	0
Cc1cc(C)cc([C@H]2CN(C)C(=O)[C@@H]2C(=O)Nc2cnn(C)c2CO)c1 [502′]	9	7 (Level 7: growth control rate greater than or equal to 80% and less than 90%)	0			
CN1C[C@H](c2cc(Cl)cc(Cl)c2)[C@@H](C(=O)Nc2cnn(C)c2Cl)C1=O [441′]				9	9	0
C=Cc1c(NC(=O)[C@H]2C(=O)N(C)C[C@@H]2c2cccc(C)c2)cnn1C(F)F [468′]	9	9	0			
CCc1ccc([C@H]2CN(C)C(=O)[C@@H]2C(=O)Nc2cnn(C)c2Cl)cc1 [244′]				9	7 (Level 7: growth control rate greater than or equal to 80% and less than 90%)	0
Cc1cc(C)cc([C@H]2CN(C)C(=O)[C@@H]2C(=O)Nc2cnn(C)c2C)c1 [272′]				9	7 (Level 7: growth control rate greater than or equal to 80% and less than 90%)	0
CN1C[C@H](c2cc(F)cc(Cl)c2)[C@@H](C(=O)Nc2cnn(C)c2Cl)C1=O [507′]	9	9	0			
Cc1cccc([C@H]2CN(C)C(=O)[C@@H]2C(=O)Nc2cnn(C)c2C)c1 [134′]				7 (Level 7: growth control rate greater than or equal to 80% and less than 90%)	7 (Level 7: growth control rate greater than or equal to 80% and less than 90%)	0
Cc1cc([C@H]2CN(C)C(=O)[C@@H]2C(=O)Nc2cnn(C)c2Cl)cc(C(F)(F)F)c1 [69′]				9	9	1 (Level 1: growth control rate less than 10%)
COC(=O)c1c(NC(=O)[C@H]2C(=O)N(C)C[C@@H]2c2cccc(C(F)(F)F)c2)cnn1C [199′]				6 (Level 6: growth control rate greater than or equal to 70% and less than 80%)	6 (Level 6: growth control rate greater than or equal to 70% and less than 80%)	0
Cc1cc([C@H]2CN(C)C(=O)[C@@H]2C(=O)Nc2cnn(C)c2C#N)cc(C)c1C [518′]	9	9	0			
COCc1c(NC(=O)[C@H]2C(=O)N(C)C[C@@H]2c2cccc(C)c2)cnn1C [378′]				9	6 (Level 6: growth control rate greater than or equal to 70% and less than 80%)	0
CN1C[C@H](c2cc(Br)cc(C(F)(F)F)c2)[C@@H](C(=O)Nc2cnn(C)c2Cl)C1=O [294′]				9	7 (Level 7: growth control rate greater than or equal to 80% and less than 90%)	0
